Assay results: patent publication US10174013B2, “Benzimidazole derivatives as kinase inhibitors” (SELVITA S.A., priority 2012, dated 2019)
Structures can show the parent of a compound that is named as a salt. Where two headings read alike, the source gives them in different places.

What was measured:
HepG2 cells = test: Growth inhibition, MTS assay, HepG2; type: cell-based, Human; conditions: MTS cell viability, read-out: HepG2 ED50
MOLM16 cells = test: Growth inhibition, MTS assay, MOLM16; type: cell-based, Human; conditions: MTS cell viability, read-out: MOLM 16 ED50
HEL92 cells = test: Growth inhibition, MTS assay, HEL92; type: cell-based, Human; conditions: MTS cell viability, read-out: HEL92 ED50
FLT3-ITD = test: ADP-Glo Kinase Assay, Flt3 ITD; type: biochemical, Human; conditions: 1 μM compound
Experimental: Compounds of the present invention were tested for their inhibitory activity against Pim-1, Pim-2, Pim-3, Flt3 wt, Flt3 ITD, CDK2/E and DYRK1. The testing of the compounds was carried out using the ADP-Glo™ Kinase Assay from Promega Corporation (Madison, Wis., USA).
The ADP-Glo™ Kinase Assay is a luminescent ADP detection assay to measure kinase activity by quantifying the amount of ADP produced during a kinase reaction. The kinase assay is performed in kinase assay buffer (5 mM MOPS, pH 7.5, 5 mM MgCl2, 0.4 mM EDTA, 1.5 mM DTT). Test samples initially dissolved in DMSO at 10 mM were diluted with the assay buffer to 1000 nM. A 30 μL volume/well of a mixture of substrates containing ATP (final ATP concentration in each kinase assay was equal to its apparent ATP Km).
The assay was performed in two steps: first, after the kinase reaction, an equal volume of ADP-Glo™ Reagent was added to terminate the kinase reaction and deplete the remaining ATP. Second, the Kinase Detection Reagent was added to simultaneously convert ADP to ATP and allowed the newly synthesized ATP to be measured using a luciferase/luciferin reaction. The luminescent signal generated was proportional to the ADP concentration produced and was correlated with kinase activity. A microplate spectrophotometer (Synergy 2 multi-mode microplate reader [BioTek]) was used for detecting the luminescence. The data was normalized and the percent of inhibition was obtained according to the following equation: […]

SW-480 cells = test: Growth inhibition, MTS assay, SW-480; type: cell-based, Human; conditions: 72 hours, MTS cell viability, read-out: SW-480 ED50
Jeko-1 cells = test: Growth inhibition, MTS assay, Jeko-1; type: cell-based, Human; conditions: 72 hours, MTS cell viability, read-out: Jeko-1 ED50
CYP3A4 = CYP3A4 (Homo sapiens (Human), UniProt P08684); test: Cytochrome P450 inhibition, fluorescence, CYP3A4; type: in vitro ADME; conditions: recombinant CYP3A4, fluorescence detection; read-out: CYP inhibition (CYP 3A4 screening, IC50 class)
Outline: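 Recombinant human CYP3A4 was incubated at 37 °C for 30–45 min with a fluorogenic probe substrate near apparent Km and serially diluted compound, after ≥10 min preincubation with an NADPH-regenerating system. Fluorescence was read after stopping, with compound autofluorescence measured beforehand and no-inhibitor and pre-stopped blanks as controls.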

MOLM13 cells = test: Growth inhibition, MTS assay, MOLM13; type: cell-based, Human; conditions: 72 hours, MTS cell viability, read-out: MOLM 13 ED50
Excerpt: (§1) The following cell lines, were obtained and used in tests as outlined below: • Human myelomonocytic, biphenotypic leukemia MV4-11 cells (harboring a Flt3-ITD mutation); • Human Acute Myeloid Leukemia MOLM16 cells; • Human Acute Myeloid Leukemia MOLM13 cells (harboring a Flt3-ITD mutation); • Human Myeloid Leukemia KG-1 cells; • Human erythroleukemia HEL92 cells; • Human mantle cell lymphoma Jeko-1 cells; • Human hepatocellular carcinoma HepG2 cells; and • Human colon adenocarcinoma SW-480 cells.
(§2) The assays were carried out according to the following protocol, which is described as an example for the MV4-11 cells:
(§3) Ten thousand MV4-11 cells were inoculated into each well of a 96-well microplate (manufactured by Corning Corp.) using Iscove's MDM medium (culture medium) containing 10% fetal calf serum (FCS). The same day, a dimethyl sulfoxide (DMSO) solution of each test compound prepared in a concentration of 10 mmol/L was further diluted with DMSO to the desired concentrations (0.1, 0.5, 1, 2.5, 5 and 10 micromol/L), and the diluted solution was added to each well. The individual wells were further cultured in 5% carbon dioxide at 37° C. for 72 hours. […] Briefly, 10 μl MTS (3-(4,5-Dimethyl-2-thiazolyl)-5-(carboxymethoxyphenyl)-2-(4-sulfophenyl)-2H-tetrazolium was added to each well, and culturing was performed in 5% carbon dioxide at 37° C. for 2 hours. After this incubation and using a microplate spectrophotometer (Synergy 2 multi-mode microplate reader (BioTek)), the absorbance of each well was measured at 490 nm. The value for cells not incubated with a test compound was designated as 100%. By comparing these values with the absorbance difference obtained at the well in which each test compound was added, the cell viability (% viability) after treatment with the test compound was calculated.

DYRK1 = DYRK1 (Homo sapiens (Human), UniProt Q13627); test: ADP-Glo Kinase Assay, DYRK1; type: biochemical; conditions: 1 μM compound; for inhibition at 1 µM: read-out: DYRK1A % INH (1 μM)
Outline: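 Compounds were diluted in assay buffer to 1000 nM and incubated with kinase, substrate and ATP at apparent Km. Remaining ATP was depleted, ADP converted to ATP and detected by luciferase; percent inhibition came from normalized luminescence.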

KG-1 cells = test: Growth inhibition, MTS assay, KG-1; type: cell-based, Human; conditions: 72 hours, MTS cell viability
Excerpt: as §1, §2, §3

Chain of CYP3A4 (P08684 whole entry): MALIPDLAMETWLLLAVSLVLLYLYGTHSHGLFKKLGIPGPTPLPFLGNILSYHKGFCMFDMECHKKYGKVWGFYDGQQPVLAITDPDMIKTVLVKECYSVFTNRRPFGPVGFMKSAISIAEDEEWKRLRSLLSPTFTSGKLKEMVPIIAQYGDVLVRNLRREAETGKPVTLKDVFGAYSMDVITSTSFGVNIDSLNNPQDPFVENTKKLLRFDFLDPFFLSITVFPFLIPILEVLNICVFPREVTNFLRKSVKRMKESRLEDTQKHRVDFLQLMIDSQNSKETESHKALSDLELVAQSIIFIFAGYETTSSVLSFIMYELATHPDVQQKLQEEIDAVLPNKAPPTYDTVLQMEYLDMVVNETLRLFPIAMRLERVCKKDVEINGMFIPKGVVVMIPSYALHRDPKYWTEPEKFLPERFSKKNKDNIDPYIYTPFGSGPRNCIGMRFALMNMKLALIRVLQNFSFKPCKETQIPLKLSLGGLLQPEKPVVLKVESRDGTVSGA

| inhibition at 1 µM (DYRK1) [%] | IC50 (HepG2 cells; Homo sapiens, HepG2, 72 h) [nM] | IC50 (MOLM16 cells; Homo sapiens, MOLM16, 72 h) [nM] | SMILES | IC50 (HepG2 cells; Homo sapiens, HepG2, 72 hours) [nM] | IC50 (MOLM16 cells; Homo sapiens, MOLM16, 72 hours) [nM] | IC50 (HEL92 cells; Homo sapiens, 72 hours) [nM] | Flt3ITD % INH (1 μM) (FLT3-ITD) [%] | IC50 (SW-480 cells; Homo sapiens, SW480) [nM] | IC50 (Jeko-1 cells; Homo sapiens, JeKo-1) [nM] | IC50 (CYP3A4) [nM] | IC50 (MOLM13 cells; Homo sapiens, MOLM-13) [nM] | IC50 (HEL92 cells; Homo sapiens, 72 h) [nM] | KG-1 ED50 (KG-1 cells) [nM] | IC50 (HepG2 cells; 72 hours) [nM] | IC50 (MOLM16 cells; 72 hours) [nM] | IC50 (HEL92 cells; 72 hours) [nM] | IC50 (Jeko-1 cells) [nM] | IC50 (MOLM13 cells) [nM] | DYRK1A % INH (1 μM) (DYRK1) [%] | IC50 (SW-480 cells) [nM] |
| --- | --- | --- | --- | --- | --- | --- | --- | --- | --- | --- | --- | --- | --- | --- | --- | --- | --- | --- | --- | --- |
| 79 | 1500 | 80 | CC(C)n1c(N2CC[C@@H](N)C2)nc2c(C#N)c(Br)c(Br)cc21 [Example 1BI] | – | – | – | – | – | 700 | 1100 to 3300 | 3250 | 5100 | 90 | – | – | – | – | – | – | – |
| – | – | – | CC(C)n1c(N2CCNC[C@H]2C)nc2c([N+](=O)[O-])c(Br)c(Br)cc21 [Example 1AX] | – | – | – | 96 | – | – | 1100 to 3300 | – | – | 120 | 100 | 20 | 100 | >100 | 60 | >95 | – |
| – | – | – | CCCn1c(N2CCNCC2)nc2c([N+](=O)[O-])c(Br)c(Br)cc21 [Example 1M] | – | – | – | – | – | – | 1100 to 3300 | – | – | – | 1800 | – | 2200 | – | – | >95 | 2100 |
| > 95 | 600 | 220 | CC(C)n1c(C2CCNCC2)nc2c([N+](=O)[O-])c(Br)c(Br)cc21 [Example 26A, 5,6-dibromo-4-nitro-2-(piperidin-4-yl)-1-(propan-2-yl)-1H-1,3-benzodiazole] | – | – | – | 93 | – | 300 | > 10000 | 320 | 900 | 470 | – | – | – | – | – | – | – |
| > 95 | 700 | – | Cl.O=[N+]([O-])c1c(Br)c(Br)cc2c1nc(N1CCNCC1)n2C1CCCC1 [Example 2D, 5,6-dibromo-1-cyclopentyl-4-nitro-2-(piperazin-1-yl)-1H-1,3-benzodiazole hydrochloride] | – | – | – | – | 600 | – | 1100 to 3300 | – | 4700 | – | – | – | – | – | – | – | – |

| SMILES | inhibition at 1 µM (DYRK1) [%] | IC50 (HepG2 cells; Homo sapiens, HepG2, 72 h) [nM] | IC50 (MOLM16 cells; Homo sapiens, MOLM16, 72 h) [nM] | IC50 (HepG2 cells; Homo sapiens, HepG2, 72 hours) [nM] | IC50 (MOLM16 cells; Homo sapiens, MOLM16, 72 hours) [nM] | IC50 (HEL92 cells; Homo sapiens, 72 hours) [nM] | Flt3ITD % INH (1 μM) (FLT3-ITD) [%] | IC50 (SW-480 cells; Homo sapiens, SW480) [nM] | IC50 (Jeko-1 cells; Homo sapiens, JeKo-1) [nM] | IC50 (CYP3A4) [nM] | IC50 (MOLM13 cells; Homo sapiens, MOLM-13) [nM] | IC50 (HEL92 cells; Homo sapiens, 72 h) [nM] | KG-1 ED50 (KG-1 cells) [nM] | IC50 (HepG2 cells; 72 hours) [nM] | IC50 (MOLM16 cells; 72 hours) [nM] | IC50 (HEL92 cells; 72 hours) [nM] | IC50 (Jeko-1 cells) [nM] | IC50 (MOLM13 cells) [nM] | DYRK1A % INH (1 μM) (DYRK1) [%] | IC50 (SW-480 cells) [nM] |
| --- | --- | --- | --- | --- | --- | --- | --- | --- | --- | --- | --- | --- | --- | --- | --- | --- | --- | --- | --- | --- |
| CCn1c(N2CCNCC2)nc2c([N+](=O)[O-])c(Br)c(Br)cc21 [Example 1A, 5,6-dibromo-1-ethyl-4-nitro-2-(piperazin-1-yl)-1H-1,3-benzodiazole hydrochloride] | 66 | – | – | 1300 | 500 | 2600 | 81 | 2500 | 800 | 3300 to 10000 | 700 | – | – | – | – | – | – | – | – | – |
| CC(C)n1c(N2CCNCC2)nc2c([N+](=O)[O-])c(Br)c(Br)cc21 [Example 2A, 5,6-dibromo-4-nitro-2-(piperazin-1-yl)-1-(propan-2-yl)-1H-1,3-benzodiazole hydrochloride] | > 95 | 600 | 140 | – | – | – | – | 800 | 400 | 3300 to 10000 | 250 | 700 | 630 | – | – | – | – | – | – | – |
